Experimental data taken from patent publication US11446365B2, “Antimalarial enzyme conjugates, kits containing same, and methods of producing and using same” (priority 2017, dated 2022).

Tested on: P. yoelii parasites in erythrocytes
Assay: Selenomethionine prodrug, 24 hour culture of parasitized blood, damaged parasites by flow cytometry
Type: cell-based
Experimental: Blood was harvested and pooled from three mice infected with the murine Plasmodium parasite P. yoelii. Pooled blood parasitemia was 4.0%. Erythrocytes were extracted from the blood and washed to remove debris. The cells were then incubated with excess mCGL-AV for 3 hours. After incubation, the cells were then washed to remove excess protein and debris. Samples were then incubated under an oxygen reduced atmosphere mimicking the conditions of blood within the body for 24 hours with varying concentrations of selenomethionine. Damaged parasites were enumerated via flow cytometry. The number of damaged parasites is expressed as a percentage of the total number of parasites. Error bars represent the standard error of n=3 repeats of the assay for the same pooled blood.
To insure that healthy red blood cells were not damaged by such high concentrations of mCGL-AV, samples of treated and untreated blood were imaged using light microscopy to search for signs of hemolysis.

## C[Se]CC[C@H](N)C(=O)O [selenomethionine]
24 hours of culture, varying concentrations of selenomethionine, no fusion protein
  impact on parasite viability, selenomethionine by itself: no significant impact on parasite viability
Excess mCGL-AV 3 hours, wash, then 24 hours with varying concentrations of selenomethionine
  damaged parasites with selenomethionine plus mCGL-AV: boosted the cytotoxicity of the fusion protein
